Experimental data: ChEMBL document CHEMBL2434925, “Synthesis and antiviral activity of a novel class of (5-oxazolyl)phenyl amines” (Eur J Med Chem, 2013)

Tests used:
[1] = test system: Hepatitis C virus; assay: Antiviral activity against HCV expressing pFL-J6/JFH/JC1 infected in human Huh7.5 cells assessed as inhibition of viral RNA synthesis after 96 hrs by one-step RT-PCR analysis; type: functional, organism-based, Hepacivirus hominis; conditions: Huh-7, 96 h
[2] = test system: Huh-7; assay: (§1) Selectivity index, ratio of CC50 for human Huh7.5 cells to IC50 for HCV expressing pFL-J6/JFH/JC1; type: functional
[3] = Cytotoxicity against human Huh7.5 cells after 96 hrs by MTT assay; type: cell-based, Huh-7
[4] = Selectivity index, ratio of CC50 for african green monkey Vero cells to IC50 for Coxsackie B3 virus Nancy; type: functional
[5] = test system: Coxsackievirus B3; assay: Antiviral activity against Coxsackie B3 virus Nancy in african green monkey Vero cells assessed as inhibition virus-induced cytopathic effect after 48 hrs; type: functional, organism-based; conditions: Enterovirus B
[6] = Cytotoxicity against african green monkey Vero cells after 96 hrs by MTT assay; type: cell-based; conditions: chlorocebus sabaeus
[7] = Selectivity index, ratio of CC50 for african green monkey Vero cells to IC50 for Coxsackie B3 virus Schmitt; type: functional
[8] = as §1; type: functional, Huh-7
[9] = test system: Coxsackievirus B6; assay: Antiviral activity against Coxsackie B6 virus Schmitt in african green monkey Vero cells assessed as inhibition virus-induced cytopathic effect after 48 hrs; type: functional, organism-based; conditions: Enterovirus B

Compound	IC50 [1]	Ratio CC50/IC50 [2]	CC50 at 96 h [3]	Ratio CC50/IC50 [4]	IC50 [5]	CC50 at 96 h [6]	Ratio CC50/IC50 [7]	Ratio CC50/IC50 [8]	IC50 [9]
CCC[C@H](NC(=O)[C@@H]1[C@H]2CCC[C@H]2CN1C(=O)[C@@H](NC(=O)[C@@H](NC(=O)c1cnccn1)C1CCCCC1)C(C)(C)C)C(=O)C(=O)NC1CC1 [TELAPREVIR]	< 0.14 µM	> 268	37.5 µM						
COc1cc(NCc2c[nH]c3ccccc23)ccc1-c1cnco1	1.62 µM		56.1 µM	4.9	9.95 µM	48.3 µM	2.1	34.6	23.2 µM
COc1cc(NCc2cc3ccccc3s2)ccc1-c1cnco1	0.5 µM		29 µM	5.3	1.39 µM	7.36 µM	6.9	57.9	1.07 µM
COc1cc(NCc2ccco2)ccc1-c1cnco1	1.06 µM		80 µM	7.5	7.6 µM	57 µM	8.2	75.4	6.96 µM
COc1ccc(-c2cnco2)cc1NCc1cccs1	3.08 µM		> 100 µM	2.1	25.9 µM	53.8 µM	4.8	>32.5	11.3 µM
COc1cc(NC/C=C/c2ccccc2)ccc1-c1cnco1	2.38 µM		> 100 µM	20.6	3.52 µM	72.5 µM	15.5	>42	4.67 µM
COc1cc(/N=C/c2ccc(F)cc2)ccc1-c1cnco1	1.18 µM		> 100 µM	7.5	43.3 µM	324 µM	5.6	>84.8	58.2 µM
COc1ccccc1/C=C/CNc1ccc(-c2cnco2)c(OC)c1	2.3 µM		29.2 µM	4	3.15 µM	12.7 µM	1.7	12.7	7.34 µM
COc1cc(NCc2cccs2)ccc1-c1cnco1	0.28 µM		51.3 µM	19.1	0.94 µM	17.9 µM	11.7	183.3	1.54 µM
